Experimental findings from patent publication US10772893B2, “2-(morpholin-4-yl)-1,7-naphthyridines” (BAYER PHARMA AKTIENGESELLSCHAFT, priority 2014, dated 2020) are described below.

The test has as its system HeLa cells. The experiment in a line: Proliferation assay, crystal violet staining. The following applies: Homo sapiens, 96 h, read-out: Inhibition of HeLa cell proliferation, HeLa cells, 4 days incubation.

Take `Cc1ncccc1-c1cc(N2CCOC[C@H]2C)nc2c(-c3ccn[nH]3)nccc12` [Example 218, 2-[(3R)-3-methylmorpholin-4-yl]-4-(2-methylpyridin-3-yl)-8-(1H-pyrazol-5-yl)-1,7-naphthyridine]: the IC50 amounted to 300 nM.
In the case of `CC(C)Oc1ncccc1-c1cc(N2CCOC[C@H]2C)nc2c(-c3ccn[nH]3)nccc12` [Example 219, 2-[(3R)-3-methylmorpholin-4-yl]-4-[2-(propan-2-yloxy)pyridin-3-yl]-8-(1H-pyrazol-5-yl)-1,7-naphthyridine] it was 2980 nM.
To `c1cc(-c2cc(N3CCOCC3)nc3c(-c4ccn[nH]4)nccc23)ccn1` [Example 221, 2-(morpholin-4-yl)-8-(1H-pyrazol-5-yl)-4-(pyridin-4-yl)-1,7-naphthyridine] belongs above 3000 nM; to `COc1ccc(Sc2cc(N3CCOC[C@H]3C)nc3c(-c4ccn[nH]4)nccc23)cc1` [Example 222, 4-[(4-methoxyphenyl)sulfanyl]-2-[(3R)-3-methylmorpholin-4-yl]-8-(1H-pyrazol-5-yl)-1,7-naphthyridine], 975 nM.
In the case of `COc1cnccc1-c1cc(N2CCOC[C@H]2C)nc2c(-c3ccn[nH]3)nccc12` [Example 227, 4-(3-methoxypyridin-4-yl)-2-[(3R)-3-methylmorpholin-4-yl]-8-(1H-pyrazol-5-yl)-1,7-naphthyridine] it was 1940 nM; in that of `C[C@@H]1COCCN1c1cc(-c2cc(Cl)cnc2F)c2ccnc(-c3ccn[nH]3)c2n1` [Example 229, 4-(5-chloro-2-fluoropyridin-3-yl)-2-[(3R)-3-methylmorpholin-4-yl]-8-(1H-pyrazol-5-yl)-1,7-naphthyridine], 447 nM; in that of `C[C@@H]1COCCN1c1cc(-c2ccncc2F)c2ccnc(-c3ccn[nH]3)c2n1` [Example 230, 4-(3-fluoropyridin-4-yl)-2-[(3R)-3-methylmorpholin-4-yl]-8-(1H-pyrazol-5-yl)-1,7-naphthyridine], 380 nM.
Turning to `Cc1cc(-c2cc(N3CCOC[C@H]3C)nc3c(-c4ccn[nH]4)nccc23)cnc1C` [Example 232, 4-(5,6-dimethylpyridin-3-yl)-2-[(3R)-3-methylmorpholin-4-yl]-8-(1H-pyrazol-5-yl)-1,7-naphthyridine], the IC50 was 341 nM.
In the case of `Cc1ncc(-c2cc(N3CCOC[C@H]3C)nc3c(-c4ccn[nH]4)nccc23)cc1F` [Example 233, 4-(5-fluoro-6-methylpyridin-3-yl)-2-[(3R)-3-methylmorpholin-4-yl]-8-(1H-pyrazol-5-yl)-1,7-naphthyridine] it was 180 nM; in that of `Cc1cc(-c2cc(N3CCOC[C@H]3C)nc3c(-c4ccn[nH]4)nccc23)cs1` [Example 234, 2-[(3R)-3-methylmorpholin-4-yl]-4-(5-methylthiophen-3-yl)-8-(1H-pyrazol-5-yl)-1,7-naphthyridine], 1210 nM.
For `COc1ccsc1-c1cc(N2CCOC[C@H]2C)nc2c(-c3ccn[nH]3)nccc12` [Example 235, 4-(3-methoxythiophen-2-yl)-2-[(3R)-3-methylmorpholin-4-yl]-8-(1H-pyrazol-5-yl)-1,7-naphthyridine], the IC50 worked out at 950 nM.
In the case of `C[C@@H]1COCCN1c1cc(-c2ccsc2Cl)c2ccnc(-c3ccn[nH]3)c2n1` [Example 236, 4-(2-chlorothiophen-3-yl)-2-[(3R)-3-methylmorpholin-4-yl]-8-(1H-pyrazol-5-yl)-1,7-naphthyridine] it was 792 nM; in that of `C[C@@H]1COCCN1c1cc(-c2cncc3ccccc23)c2ccnc(-c3ccn[nH]3)c2n1` [Example 237, 4-(isoquinolin-4-yl)-2-[(3R)-3-methylmorpholin-4-yl]-8-(1H-pyrazol-5-yl)-1,7-naphthyridine], 528 nM; in that of `C[C@@H]1COCCN1c1cc(-c2ccc(Cl)s2)c2ccnc(-c3ccn[nH]3)c2n1` [Example 238, 4-(5-chlorothiophen-2-yl)-2-[(3R)-3-methylmorpholin-4-yl]-8-(1H-pyrazol-5-yl)-1,7-naphthyridine], 1180 nM.
